Measured values: patent US20260234163A1, “NOVEL COMPOUNDS AND USES THEREOF” (ACELINK THERAPEUTICS, INC., priority 2023, published 2026)

These compounds were tested against T1, Keap1-Nrf2 (Homo sapiens, UniProt Q14145) (assay: Keap1-Nrf2 Binding Inhibitory Activity Assay (fluorescence polarization, Keap1_FL + FITC-Nrf2 peptide)). Details: Keap1-FL, 60 min room temperature.
T1 construct: purchased Sino Biological 11981-H20B
Procedure: Example 2.1 Keap1-Nrf2 Binding Inhibitory Activity Assay
• PerkinElmer EnVision 2105 Multilabel Reader • PerkinElmer FITC FP dual emission Label 2100-8060 • LABCYTE Echo 650 • Corning 384-well microplate #4514 • Keap1_FL, Sino Biological, catalog 11981-H20B • FITC-Nrf2 peptide, GL Biochem, Lot No: p210427-XQ892761
• a) Reference titration • 1. Keap1-Nrf2 Assay Buffer was prepared: 10 mM Tris-HCl pH 7.4, 150 mM NaCl, 50 mM EDTA, 0.05% Tween20, 0.1 mg/ml BSA (freshly add before use). • 2. 2.04× Tracer working solution was prepared: 2.04 nM FITC-Nrf2 peptide in Assay Buffer from 1 μM DMSO stock. • 3. 2× Protein working solution was prepared: 25 nM Keap1-FL in Assay Buffer. • 4. 100× compound working solutions with DMSO were prepared. Starting from 100 μM, serial 3-fold dilutions (10 points) were made by the Echo on the 384-well LDV microplate, then 200 nL of compounds, in duplicated wells, were transferred to a Corning 4514 plate. • 5. 9.8 μL per well of the Tracer working solution was added into the Corning 4514 plate. • 6. 10 μL per well of the Protein working solution was added into the Corning 4514 plate, except for the first two columns where Dilution Buffer were added to serve as “positive control”. • 7. The plate was incubated at room temperature for 60 min. • b) Read data on an EnVision with the following setting: Excitation Light (%): 84; Measurement Height: 9.4; G-Factor: 1; Detector Gain 1:220; Detector Gain 2: 220; Flash Number: 50.
All the Test Compounds were considered as having Keap1-Nrf2 binding inhibitory activity.

First: Cc1ccc2cc1CN(C)C(=O)c1ccc(cc1)COCCCn1nnc3c(C)c(ccc31)C2CC(=O)O (single isomer, unassigned) [Compound 16, 2-(1^4,3^4,5-trimethyl-6-oxo-1^1H-9-oxa-5-aza-1(5,1)-benzo[d][1,2,3]triazola-3(1,3), 7(1,4)-dibenzenacyclododecaphane-2-yl)acetic acid]
Second: Cc1c2ccc3c1nnn3CCCOCc1ccc(cc1)C(=O)N(C)Cc1cc(ccn1)C2CC(=O)O (single isomer, unassigned) [Compound 26]
The IC50 of the first is higher: 1000 to 10000 nM for the first, 100 to 1000 nM for the second.

Cc1c2ccc3c1nnn3CCCOCc1ccc(cc1)C(=O)N(C)Cc1cncc(c1)C2CC(=O)O (single isomer, unassigned) [Compound 20] and Cc1c2ccc3c1nnn3CCCOCc1ccc(cc1)C(=O)N(C)Cc1cc(ccn1)C2CC(=O)O (single isomer, unassigned) [Compound 27] fall in the same range of IC50: 1000 to 10000 nM for the first, 1000 to 10000 nM for the second.

Cc1c2ccc3c1nnn3CCCOCc1ccc(cc1)S(=O)(=O)N(C)Cc1cccc(c1)C2CC(=O)O (centres unmarked) [Compound 22] and Cc1c2ccc3c1nnn3CCCOCc1ccc(cc1)C(=O)N(C)Cc1cncc(c1)C2CC(=O)O (single isomer, unassigned) [Compound 23] fall in the same range of IC50: 1000 to 10000 nM for the first, 1000 to 10000 nM for the second.

Cc1c2ccc3c1nnn3CCCCOc1ccc(cc1)S(=O)(=O)N1CCc3ccc(cc3C1)C2CC(=O)O (centres unmarked) [Compound 13, 2-(1^4-methyl-4,4-dioxido-3^1,3^2,3^3,3^4-tetrahydro-1^1H-6-oxa-4-thia-3(7,2)-isoquinolina-1(5,1)-benzo[d][1,2,3]triazola-5(1,4)-benzenacyclodecaphane-2-yl)acetic acid] and Cc1c2ccc3c1nnn3CCCCC(=O)N1CCc3ccc(cc3C1)C2CC(=O)O (centres unmarked) [Compound 46] cannot be ordered by IC50: no more than 100 nM for the first, 100 to 1000 nM for the second.

Cc1c2ccc3c1nnn3CCCOCc1ccc(cc1)C(=O)N(C)Cc1cccc(n1)C2CC(=O)O (single isomer, unassigned) [Compound 24] and Cc1c2ccc3c1nnn3CCCOCc1ccc(cc1)C(=O)N(C)Cc1ccnc(c1)C2CC(=O)O (centres unmarked) [Compound 21] fall in the same range of IC50: 100 to 1000 nM for the first, 100 to 1000 nM for the second.

Cc1c2ccc3c1nnn3CCCCCCCCCC(=O)N1CCc3ccc(cc3C1)C2CC(=O)O (centres unmarked) [Compound 41] and Cc1c2ccc3c1nnn3CCCCCCC(=O)N1CCc3ccc(cc3C1)C2CC(=O)O (centres unmarked) [Compound 42] cannot be ordered by IC50: no more than 100 nM for the first, no more than 100 nM for the second.

First: Cc1c2ccc3c1nnn3CCOCCOC1CCN(CC1)C(=O)c1ccc3c(c1)CN(CC3)C2CC(=O)O (centres unmarked) [Compound 9, 2-(carboxymethyl)-1^4-methyl-4-oxo-3^1,3^2,3^3,3^4-tetrahydro-1^1H-6,9-dioxa-3(2,7)-isoquinolin-2-iuma-1(5,1)-benzo[d][1,2,3]triazola-5(1,4)-piperidinacycloundecaphan-3^2-ium chloride]
Second: Cc1c2ccc3c1nnn3CCOCCOC1CCN(CC1)S(=O)(=O)N1CCc3ccc(cc3C1)C2CC(=O)O (centres unmarked) [Compound 15, 2-(1^4-methyl-4,4-dioxido-3^1,3^2,3^3,3^4-tetrahydro-1^1H-6,9-dioxa-4-thia-3(7,2)-isoquinolina-1(5,1)-benzo[d][1,2,3]triazola-5(1,4)-piperidinacycloundecaphane-2-yl)acetic acid]
The IC50 of the first is higher: 1000 to 10000 nM for the first, no more than 100 nM for the second.

First: Cc1c2ccc3c1nnn3CCOCCOC1CCN(CC1)C(=O)c1ccc3ccc(cc3c1)C2CC(=O)O (single isomer, unassigned) [Compound 18]
Second: Cc1c2ccc3c1nnn3CCCCOC1CCN(CC1)S(=O)(=O)N1CCc3ccc(cc3C1)C2CC(=O)O (centres unmarked) [Compound 6, 2-(1^4-methyl-4,4-dioxido-3^1,3^2,3^3,3^4-tetrahydro-1^1H-6-oxa-4-thia-3(7,2)-isoquinolina-1(5,1)-benzo[d][1,2,3]triazola-5(1,4)-piperidinacyclodecaphane-2-yl)acetic acid]
The IC50 of the first is higher: 1000 to 10000 nM for the first, no more than 100 nM for the second.

Cc1c2ccc3c1nnn3CCOCCOC1CCN(CC1)C(=O)c1ccc3ccc(cc3c1)C2CC(=O)O (single isomer, unassigned) [Compound 19] and Cc1c2ccc3c1nnn3CCCCC1CCN(CC1)C(=O)N(C)Cc1cccc(c1)C2CC(=O)O (centres unmarked) [Compound 32] fall in the same range of IC50: 1000 to 10000 nM for the first, 1000 to 10000 nM for the second.

Cc1c2ccc3c1nnn3CCCCC1CCC(CC1)C(=O)N(C)Cc1cccc(c1)C2CC(=O)O (centres unmarked) [Compound 36] and Cc1c2ccc3c1nnn3CCCCCC1CCN(CC1)C(=O)N(C)Cc1cccc(c1)C2CC(=O)O (centres unmarked) [Compound 31] fall in the same range of IC50: 100 to 1000 nM for the first, 100 to 1000 nM for the second.

O=C(O)CC1c2ccc3c(c2)CN(CC3)C(=O)N2CCC(CCCCn3nnc4cc1cnc43)CC2 (single isomer, unassigned) [Compound 52] and Cc1c2ccc3c1nnn3CCCCCC1CCN(CC1)C(=O)N1CCc3ccc(cc3C1)C2CC(=O)O (single isomer, unassigned) [Compound 29] cannot be ordered by IC50: no more than 100 nM for the first, no more than 100 nM for the second.

Cc1c2ccc3c1nnn3CCCCCC1CCC(CC1)C(=O)N1CCc3ccc(cc3C1)C2CC(=O)O (single isomer, unassigned) [Compound 50] and Cc1c2ccc3c1nnn3CCCCC1CCC(CC1)C(=O)N1CCc3ccc(cc3C1)C2CC(=O)O (single isomer, unassigned) [Compound 47] cannot be ordered by IC50: no more than 100 nM for the first, no more than 100 nM for the second.

Cc1c2ccc3c1nnn3CCCOCc1ccc(cc1)C(=O)N(C)Cc1cccc(n1)C2CC(=O)O (single isomer, unassigned) [Compound 25] and Cc1c2ccc3c1nnn3CCCCCC1CCN(CC1)C(=O)N(C)CCc1ccc(cc1)C2CC(=O)O (centres unmarked) [Compound 44, 2-(14,6-dimethyl-7-oxo-11H-6-aza-1(5,1)-benzo[d][1,2,3]triazola-8(1,4)-piperidina-3(1,4)-benzenacyclotridecaphane-2-yl)acetic acid] fall in the same range of IC50: 1000 to 10000 nM for the first, 1000 to 10000 nM for the second.

O=C(O)CC1c2ccc3c(c2)CN(CC3)C(=O)N2CCC(CCCCn3nnc4cc1cnc43)CC2 (single isomer, unassigned) [Compound 51] and Cc1c2ccc3c1nnn3CCCCCC1CCN(CC1)C(=O)N1CCc3ccc(cc3C1)C2CC(=O)O (single isomer, unassigned) [Compound 28] cannot be ordered by IC50: 100 to 1000 nM for the first, no more than 100 nM for the second.

Cc1c2ccc3c1nnn3CCCCCC1CCC(CC1)C(=O)N1CCc3ccc(cc3C1)C2CC(=O)O (single isomer, unassigned) [Compound 49] and Cc1c2ccc3c1nnn3CCCCC1CCC(CC1)C(=O)N1CCc3ccc(cc3C1)C2CC(=O)O (single isomer, unassigned) [Compound 48] cannot be ordered by IC50: no more than 100 nM for the first, no more than 100 nM for the second.

First: Cc1c2ccc3c1nnn3CCCCCNC(=O)N1CCc3ccc(cc3C1)C2CC(=O)O (centres unmarked) [Compound 43]
Second: Cc1c2ccc3c1nnn3CCCCCCCCNC(=O)N1CCc3ccc(cc3C1)C2CC(=O)O (centres unmarked) [Compound 38]
The IC50 of the first is higher: 1000 to 10000 nM for the first, no more than 100 nM for the second. The second is the more potent here.
